In patent publication US12637461B2, “Compounds for the activation of AMPK” (PFIZER INC., priority 2022, dated 2026):

Target: T1, human AMPK α2β2γ3 (Homo sapiens, UniProt O43741+P54646+Q9UGI9)
T1 construct: expressed in transfected cells; host or cells: HEK293AD cells, MaxCyte bulk electroporation
Test: Primary cellular assay: γ3 associated phospho-Thr172 AMPK detection (custom pAMPK Surefire AlphaLISA) in α2β2γ3 bulk transiently transfected HEK293 cells
Assay type: cell-based
Details: activation of human AMPK α2β2γ3 (γ3 pThr172 AMPK signal) in transiently transfected HEK293 cells, 20 minutes compound incubation; for Emax: 20 min, read-out: Assay GMean Asy. Max (%); for Emax / Assay GMean Asy. Max (%): geometric mean of the asymptotic max; for EC50: geometric mean EC50, read-out: Assay GMean EC50
Description: Primary Cellular Assay—γ3 Associated Phospho-Thr172 AMPK Detection in α2β2γ3 Bulk Transiently Transfected HEK293 Cells
The cellular potencies of the compounds were evaluated using a custom pAMPK Surefire AlphaLISA designed to assess γ3 associated phospho-Thr172 AMPK and modulation by small molecules in AMPK α2β2γ3 transiently transfected HEK293 cells.
A pAMPK Surefire AlphaLISA (PE-ASLU-PAMPK) assay available through Perkin Elmer was modified to selectively assess γ3 pThr172 AMPK content (as opposed to total pThr172 AMPK) by labeling a γ3 antibody with a CaptSure™ tag and substituting it for the total α1c/α2 AMPK labeled antibodies in the kit. In the modified assay, the overall abundance of γ3 AMPK is recognized by the CaptSure γ3 antibody and the phosphorylated AMPK is recognized by biotinylated pThr172 antibody. Subsequent reactivity with streptavitin donor beads and anti CaptSure conjugated acceptor beads brings the molecules into close proximity. Upon excitation at 680 nm, the donor bead converts ambient oxygen to a more excited singlet state which reacts with the acceptor bead and emits light at 520 to 620 nm. The intensity of the signal is proportional to the level of γ3 associated pThr172 AMPK phosphorylation.
In short, AMPK-α2+β2+γ3 MaxCyte bulk-transfected HEK293AD cells were thawed in growth media (DMEM High glucose+10% FBS) in a collagen-coated T150 flask and the cells were allowed to adhere and grow overnight in a 37° C. incubator. The following day, the cells were harvested and resuspended in plating medium (DMEM Low glucose+10% FBS) at a concentration of 100,000 cells per mL and 50 μL of this cell suspension was added to all wells of a 384-well plate using a Multidrop Combi. The cells were allowed to adhere and grow for 2 days in a 37° C. incubator. On assay day, compounds were diluted in 100% dimethyl sulfoxide (DMSO) in a 11 dose, half log dilution scheme and spotted in the cell plates at 1000× the final concentration. Compound incubations were performed in plating media for 20 minutes. Cells were washed with PBS, lysed and the signal was generated by subsequent additions of RB1 reagent from the kit, 1:1000 CaptSure γ3 labeled antibody in 1× immunoassay buffer, Anti-CaptSure acceptor beads and Streptavitin donor beads at final concentration of […]. The γ3 pThr172 AMPK signal was developed using EnVision™ multilabel reader (Perkin Elmer) using Alphascreen settings. The fluorescence emission was used to calculate the % effect relative to the HPE (30 μM) and ZPE (DMSO). EC50 curves were generated with the ActivityBase software using the XLfit model 205 to determine EC50 and Emax values.
For screening purposes, bulk AMPK-α2+β2+γ3 MaxCyte bulk transfection into HEK293AD cells were generated to support SAR screening as follows.
HEK293AD cells were seeded into 10 flasks at 2.7×10^7 cells per flask. The following day 12 mL of Trypl E dissociation reagent were added to each flask to lift the cells and the cells were then spun at 300×g for 5 minutes. Cells were washed once in MaxCyte EP buffer and then resuspended in MaxCyte EP buffer at 1×10^8 cells per mL. For transfection, 500×10^6 cells in 500 μl MaxCyte EP buffer were placed in a CL1.1 Processing Assembly (electroporation cell) with 1 mg/mL ([…]) of each of the plasmids pcDNA3.1(+)-human AMPK alpha 2, pcDNA3.1(+)-human AMPK beta 2 and pcDNA3.1(+)-human AMPK gamma 3 and the electroporation was carried out on the MaxCyte STX using the HEK293 electroporation protocol. Following electroporation, cells were transferred to a T175 flask containing growth medium (DMEM High glucose+10% FBS) and allowed to recover for 25 minutes, then the cells were resuspended to final volume of 900 mL and distributed into 6XT175 flasks and allowed to adhere and grow overnight in a 37° C. incubator. […]

T1 sequence (P54646 whole entry): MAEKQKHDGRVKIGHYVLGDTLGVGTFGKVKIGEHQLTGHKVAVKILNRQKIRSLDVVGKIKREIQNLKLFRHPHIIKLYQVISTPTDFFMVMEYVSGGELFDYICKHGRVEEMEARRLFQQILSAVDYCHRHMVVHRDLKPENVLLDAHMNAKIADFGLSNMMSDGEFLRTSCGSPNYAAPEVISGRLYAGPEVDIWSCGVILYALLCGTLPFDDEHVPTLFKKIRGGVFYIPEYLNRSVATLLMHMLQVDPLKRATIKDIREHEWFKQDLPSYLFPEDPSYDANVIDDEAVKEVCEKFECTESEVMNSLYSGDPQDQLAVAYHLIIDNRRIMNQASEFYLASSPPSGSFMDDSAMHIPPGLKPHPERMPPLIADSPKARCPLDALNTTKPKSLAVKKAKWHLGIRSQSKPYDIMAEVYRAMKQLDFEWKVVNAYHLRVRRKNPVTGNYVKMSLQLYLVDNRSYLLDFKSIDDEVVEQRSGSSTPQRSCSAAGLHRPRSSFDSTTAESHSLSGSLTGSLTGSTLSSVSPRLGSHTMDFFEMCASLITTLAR
T1 sequence (O43741 whole entry): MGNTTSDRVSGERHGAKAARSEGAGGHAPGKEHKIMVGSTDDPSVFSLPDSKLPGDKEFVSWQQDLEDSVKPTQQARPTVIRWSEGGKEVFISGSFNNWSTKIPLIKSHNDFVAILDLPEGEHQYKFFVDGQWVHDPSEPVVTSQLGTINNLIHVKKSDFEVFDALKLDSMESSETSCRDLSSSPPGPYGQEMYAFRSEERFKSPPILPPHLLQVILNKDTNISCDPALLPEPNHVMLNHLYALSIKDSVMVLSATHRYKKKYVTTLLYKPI
T1 sequence (Q9UGI9 whole entry): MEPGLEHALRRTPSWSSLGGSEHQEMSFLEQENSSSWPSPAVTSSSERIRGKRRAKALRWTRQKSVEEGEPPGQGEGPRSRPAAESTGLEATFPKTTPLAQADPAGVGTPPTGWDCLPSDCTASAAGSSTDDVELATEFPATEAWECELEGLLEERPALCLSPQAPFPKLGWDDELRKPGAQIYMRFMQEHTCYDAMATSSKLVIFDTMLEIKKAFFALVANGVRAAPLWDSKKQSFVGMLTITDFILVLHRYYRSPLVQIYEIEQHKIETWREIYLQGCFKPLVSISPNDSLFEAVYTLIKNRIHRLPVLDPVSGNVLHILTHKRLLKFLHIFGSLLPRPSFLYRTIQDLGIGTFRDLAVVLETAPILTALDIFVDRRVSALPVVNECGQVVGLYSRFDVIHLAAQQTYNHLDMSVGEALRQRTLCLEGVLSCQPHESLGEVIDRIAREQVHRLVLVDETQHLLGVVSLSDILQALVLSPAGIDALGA

SMILES	Emax [%]	EC50 [nM]	Assay GMean Asy. Max (%)
CN1CCC(N2CC(Nc3ncc4c(c3F)[C@@](C)(c3cccc(Cl)c3F)CN(c3nn(C)cc3F)C4=O)C2)C1=O (single isomer, unassigned) [compound 69]	81.6	29.2	
CN1CCC(N2CC(Nc3ncc4c(c3F)[C@@](C)(c3cccc(Cl)c3F)CN(c3nn(C)cc3F)C4=O)C2)C1=O (single isomer, unassigned) [compound 70]		47.6	80.4
CN1CCCC(N2CC(Nc3ncc4c(c3F)[C@@](C)(c3cccc(Cl)c3F)CN(c3nn(C)cc3F)C4=O)C2)C1=O (single isomer, unassigned) [compound 71]	139	19.8	
CN1CCCC(N2CC(Nc3ncc4c(c3F)[C@@](C)(c3cccc(Cl)c3F)CN(c3nn(C)cc3F)C4=O)C2)C1=O (single isomer, unassigned) [compound 72]		42.3	121
CC1(c2cccc(Cl)c2F)CN(c2ccc3cncn3c2)C(=O)c2cnc(NC3CN(C(=O)[C@@H]4C[C@@H]4F)C3)nc21 (single isomer, unassigned) [compound 79]	121	2830	
CC1(c2cccc(Cl)c2F)CN(c2ncccc2F)C(=O)c2cnc(NC3CN(C(=O)[C@@H]4C[C@@H]4F)C3)nc21 (single isomer, unassigned) [compound 81]	123	> 1060	
CC1(c2cccc(Cl)c2F)CN(c2ncccc2F)C(=O)c2cnc(NC3CN(C(=O)[C@@H]4CC45CCOCC5)C3)nc21 (single isomer, unassigned) [compound 82]	218	107	
COC[C@H](C)NC(=O)N1CC(Nc2ncc3c(n2)C(C)(c2cccc(Cl)c2F)CN(c2ncccc2F)C3=O)C1 (single isomer, unassigned) [compound 85]	141	162	
CC1(c2cccc(Cl)c2F)CN(c2ncccc2F)C(=O)c2cnc(NC3CN(C(=O)N4CCC[C@@H]4CO)C3)nc21 (single isomer, unassigned) [compound 86]	106	34.6	
CC1(c2cccc(Cl)c2F)CN(c2ncccc2F)C(=O)c2cnc(NC3CN(C(=O)N4C[C@@H]5C[C@H]4CO5)C3)nc21 (single isomer, unassigned) [compound 88]	213	71.6	
Cn1cc(F)c(N2C[C@](C)(c3cccc(Cl)c3F)c3c(cnc(NC4CN(C(=O)C5CCC(F)(F)CN5)C4)c3F)C2=O)n1 (single isomer, unassigned) [compound 95]	78	125	
Cn1cc(F)c(N2C[C@](C)(c3cccc(Cl)c3F)c3c(cnc(NC4CN(C(=O)C5CCC(F)(F)CN5)C4)c3F)C2=O)n1 (single isomer, unassigned) [compound 96]		60.5	85.5
Cn1cnc(N2C[C@](C)(c3cccc(Cl)c3F)c3c(cnc(NC4CN(C(=O)C5CC5C(F)(F)F)C4)c3F)C2=O)c1 (single isomer, unassigned) [compound 97]		150	25.8
Cn1cnc(N2C[C@](C)(c3cccc(Cl)c3F)c3c(cnc(NC4CN(C(=O)C5CC5C(F)(F)F)C4)c3F)C2=O)c1 (single isomer, unassigned) [compound 98]		114	66.2
CC1(c2ccc(F)c(Cl)c2F)CN(c2ccc(N)cn2)C(=O)c2cnc(NC3CN(C(=O)[C@@H]4C[C@@H]4F)C3)c(F)c21 (single isomer, unassigned) [compound 102]	51.4	25.9	
CC1(c2ccc(F)c(Cl)c2F)CN(c2ccc(CO)cn2)C(=O)c2cnc(NC3CN(C(=O)N4C[C@@H]5C[C@H]4CO5)C3)c(F)c21 (single isomer, unassigned) [compound 103]	113	27.5	
Cc1c(F)ccc(C2(C)CN(c3ccc(N)cn3)C(=O)c3cnc(NC4CN(C(=O)[C@@H]5C[C@@H]5F)C4)c(F)c32)c1F (single isomer, unassigned) [compound 104]	49.8	32.1	
Cc1c(F)ccc(C2(C)CN(c3ccc(CO)cn3)C(=O)c3cnc(NC4CN(C(=O)[C@@H]5C[C@@H]5F)C4)c(F)c32)c1F (single isomer, unassigned) [compound 105]	38.4	19.8	
Cc1c(F)ccc(C2(C)CN(c3ccc(CO)cn3)C(=O)c3cnc(NC4CN(C(=O)N5C[C@@H]6C[C@H]5CO6)C4)c(F)c32)c1F (single isomer, unassigned) [compound 107]	119	32.7	
CN1CCC(F)(C(=O)N2CC[C@@H](Nc3ncc4c(c3F)C(C)(c3cccc(Cl)c3F)CN(c3ncccc3F)C4=O)C2)CC1 (single isomer, unassigned) [compound 109]	81.7	76.2	
CC1(c2cccc(Cl)c2F)CN(c2ncccc2F)C(=O)c2cnc(NC3CN(C(=O)[C@](C)(O)C(F)(F)F)C3)nc21 (single isomer, unassigned) [compound 111]	159	342	
C[C@]1(c2cccc(Cl)c2F)CN(c2ncccc2F)C(=O)c2cnc(NC3CN(C(=O)C4(O)CC4)C3)c(F)c21 [Example 1, (4R)-4-(3-Chloro-2-fluorophenyl)-5-fluoro-2-(3-fluoropyridin-2-yl)-6-{[1-(1-hydroxycyclopropane-1-carbonyl)azetidin-3-yl]amino}-4-methyl-3,4-dihydro-2,7-naphthyridin-1(2H)-one]	112	33.6	
Cn1cc(F)c(N2C[C@](C)(c3cccc(Cl)c3F)c3c(cnc(NC4CN(C(=O)[C@@H]5C[C@@H]5F)C4)c3F)C2=O)n1 [Example 2, (4R)-4-(3-chloro-2-fluorophenyl)-5-fluoro-6-({1-[(1S,2S)-2-fluorocyclopropane-1-carbonyl]azetidin-3-yl}amino)-2-(4-fluoro-1-methyl-1H-pyrazol-3-yl)-4-methyl-3,4-dihydro-2,7-naphthyridin-1(2H)-one]	81.7	29.9	
Cn1cnc(N2C[C@](C)(c3cccc(Cl)c3F)c3c(cnc(NC4CN(C(=O)C(C)(C)O)C4)c3F)C2=O)c1 [Example 3, (4R)-4-(3-Chloro-2-fluorophenyl)-5-fluoro-6-{[1-(2-hydroxy-2-methylpropanoyl)azetidin-3-yl]amino}-4-methyl-2-(1-methyl-1H-imidazol-4-yl)-3,4-dihydro-2,7-naphthyridin-1(2H)-one]	56	112	
C[C@]1(c2cccc(Cl)c2F)CN(c2ccc(CO)cn2)C(=O)c2cnc(NC3CN(C(=O)c4cccnn4)C3)c(F)c21 [Example 4, (4R)-4-(3-Chloro-2-fluorophenyl)-5-fluoro-2-[5-(hydroxymethyl)pyridin-2-yl]-4-methyl-6-{[1-(pyridazine-3-carbonyl)azetidin-3-yl]amino}-3,4-dihydro-2,7-naphthyridin-1(2H)-one]	96.3	66.3	
